Experimental data reported in patent publication US11051515B2, “3-acyl-benzamides and their use as herbicides” (Bayer Aktiengesellschaft, priority 2017, dated 2021).

Key:
[1] = system: SETVI; experiment: Post-emergence action against SETVI; format: in vivo, Setaria viridis; details: post-emergence, dosage 80 g/ha, visual assessment about 3 weeks after treatment vs untreated controls
In short: (§1)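 Post-emergence foliar spray on greenhouse plants at the one-leaf stage, using wettable-powder or emulsion-concentrate formulations in water (600 to […], plus 0.2% wetting agent). Damage scored by eye roughly 3 weeks later against untreated plants: 0% = like control, 100% = dead.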

[2] = system: LOLMU; experiment: Post-emergence action against LOLMU; format: in vivo, Lolium multiflorum; details: dosage 80 g/ha, visual assessment about 3 weeks after treatment vs untreated controls
Description: Seeds of monocotyledonous and dicotyledonous weed and crop plants are laid out in sandy loam soil in wood-fiber pots, covered with soil and cultivated in a greenhouse under good growth conditions. 2 to 3 weeks after sowing, the test plants are treated at the one-leaf stage. The compounds of the invention, formulated in the form of wettable powders (WP) or as emulsion concentrates (EC), are then sprayed onto the green parts of the plants in the form of an aqueous suspension or emulsion at a water application rate equating to […], with addition of 0.2% wetting agent. After the test plants have been left to stand in the greenhouse under optimal growth conditions for about 3 weeks, the action of the preparations is assessed visually in comparison to untreated controls (herbicidal action in percent (%): 100% activity=the plants have died, 0% activity=like control plants). […] At the same time, inventive compounds leave Gramineae crops such as barley, wheat, rye, millet/Sorghum, corn or rice virtually undamaged when applied post-emergence, even at high active ingredient dosages. In addition, some substances are also harmless to dicotyledonous crops such as soya, cotton, oilseed rape, sugar beet or potatoes. Some of the compounds according to the invention have high selectivity and are therefore suitable for controlling unwanted vegetation in agricultural crops by the post-emergence method. The data of Tables B18 to B34 below illustrate, in an exemplary manner, the […] herbicidal action of the compounds according to the invention, the herbicidal activity being stated in percent.

[3] = system: MATIN; experiment: Pre-emergence action against MATIN; format: in vivo, Matricaria inodora; details: Dosage 320 g/ha, pre-emergence
In short: (§2)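 Seeds sown in sandy loam in wood-fiber pots and covered with soil. Greenhouse growth; visual damage scored after 3 weeks versus untreated controls (100% = dead, 0% = like control).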

[4] = system: VIOTR; experiment: Pre-emergence action against VIOTR; format: in vivo, Viola tricolor; details: Dosage 320 g/ha, pre-emergence
In short: as §2

[5] = system: LOLMU; experiment: Pre-emergence action against LOLMU; format: in vivo, Lolium multiflorum; details: dosage 320 g/ha, scored visually after 3 weeks vs untreated controls
In short: as §2

[6] = system: AMARE; experiment: Pre-emergence action against AMARE; format: in vivo, Amaranthus retroflexus; details: pre-emergence, dosage 320 g/ha, scored visually after 3 weeks vs untreated controls
In short: as §2

[7] = system: PHBPU; experiment: Pre-emergence action against PHBPU; format: in vivo, Pharbitis purpurea; details: Dosage 320 g/ha, pre-emergence
In short: as §2

[8] = system: AMARE; experiment: Post-emergence action against AMARE; format: in vivo, Amaranthus retroflexus; details: post-emergence, dosage 80 g/ha, visual assessment about 3 weeks after treatment vs untreated controls
In short: as §1

[9] = system: PHBPU; experiment: Post-emergence action against PHBPU; format: in vivo, Pharbitis purpurea; details: post-emergence, dosage 80 g/ha
In short: as §1

[10] = system: VERPE; experiment: Post-emergence action against VERPE; format: in vivo, Veronica persica; details: dosage 80 g/ha
In short: as §1

[11] = system: VIOTR; experiment: Post-emergence action against VIOTR; format: in vivo, Viola tricolor; details: post-emergence, dosage 80 g/ha
In short: as §1

[12] = system: ALOMY; experiment: Pre-emergence action against ALOMY; format: in vivo, Alopecurus myosuroides; details: dosage 320 g/ha; pre-emergence; scored visually after 3 weeks vs untreated controls; 100% = plants have died, 0% = like control plants
In short: as §2

[13] = system: ABUTH; experiment: Pre-emergence action against ABUTH; format: in vivo, Abutilon theophrasti; details: pre-emergence, dosage 320 g/ha, scored visually after 3 weeks vs untreated controls
In short: as §2

[14] = system: ABUTH; experiment: Post-emergence action against ABUTH; format: in vivo, Abutilon theophrasti; details: post-emergence, dosage 80 g/ha, visual assessment about 3 weeks after treatment vs untreated controls
In short: as §1

[15] = system: ECHCG; experiment: Pre-emergence action against ECHCG; format: in vivo, Echinochloa crus-galli; details: pre-emergence, dosage 320 g/ha, scored visually after 3 weeks vs untreated controls
In short: as §2

[16] = system: MATIN; experiment: Post-emergence action against MATIN; format: in vivo, Matricaria inodora; details: post-emergence, dosage 80 g/ha, visual assessment about 3 weeks after treatment vs untreated controls
In short: as §1

[17] = system: AVEFA; experiment: Pre-emergence action against AVEFA; format: in vivo, Avena fatua; details: dosage 320 g/ha, scored visually after 3 weeks vs untreated controls
In short: as §2

[18] = system: STEME; experiment: Pre-emergence action against STEME; format: in vivo, Stellaria media; details: Dosage 320 g/ha, pre-emergence
In short: as §2

[19] = system: ECHCG; experiment: Post-emergence action against ECHCG; format: in vivo, Echinochloa crus-galli; details: post-emergence, dosage 80 g/ha, visual assessment about 3 weeks after treatment vs untreated controls
In short: as §1

[20] = system: CYPES; experiment: Pre-emergence action against CYPES; format: in vivo, Cyperus esculentus; details: pre-emergence, dosage 320 g/ha, scored visually after 3 weeks vs untreated controls
In short: as §2

[21] = system: AVEFA; experiment: Post-emergence action against AVEFA; format: in vivo, Avena fatua; details: post-emergence, dosage 80 g/ha, visual assessment about 3 weeks after treatment vs untreated controls
In short: as §1

[22] = system: POLCO; experiment: Post-emergence action against POLCO; format: in vivo, Polygonum convolvulus; details: post-emergence, dosage 80 g/ha
In short: as §1

[23] = system: SETVI; experiment: Pre-emergence action against SETVI; format: in vivo, Setaria viridis; details: pre-emergence, dosage 320 g/ha, scored visually after 3 weeks vs untreated controls
In short: as §2

[24] = system: ALOMY; experiment: Post-emergence action against ALOMY; format: in vivo, Alopecurus myosuroides; details: Dosage 80 g/ha, post-emergence
In short: as §1

[25] = system: VERPE; experiment: Pre-emergence action against VERPE; format: in vivo, Veronica persica; details: Dosage 320 g/ha, pre-emergence
In short: as §2

CCn1nnnc1NC(=O)c1ccc(C(F)(F)F)c(C(=O)C2CC2)c1Cl [2-141]
Post-emergence action against SETVI (herbicidal action in percent) [1]: 90% | Post-emergence action against LOLMU (herbicidal action in percent) [2]: 90% | Pre-emergence action against MATIN [3]: 100% | Pre-emergence action against VIOTR [4]: 100% | Pre-emergence action against LOLMU (herbicidal activity) [5]: 100% | Pre-emergence action against AMARE (herbicidal activity) [6]: 100% | Pre-emergence action against PHBPU [7]: 80% | Post-emergence action against AMARE (herbicidal action in percent) [8]: 90% | Post-emergence action against PHBPU [9]: 90 | Post-emergence action against VERPE [10]: 80 | Post-emergence action against VIOTR [11]: 100 | Pre-emergence action against ALOMY (herbicidal activity in percent) [12]: 100% | Pre-emergence action against ABUTH (herbicidal activity) [13]: 100% | Post-emergence action against ABUTH (herbicidal action in percent) [14]: 90% | Pre-emergence action against ECHCG (herbicidal activity) [15]: 100% | Post-emergence action against MATIN (herbicidal action in percent) [16]: 80% | Pre-emergence action against AVEFA (herbicidal activity) [17]: 100% | Pre-emergence action against STEME [18]: 90% | Post-emergence action against ECHCG (herbicidal action in percent) [19]: 90% | Pre-emergence action against CYPES (herbicidal activity) [20]: 90% | Post-emergence action against AVEFA (herbicidal action in percent) [21]: 90% | Post-emergence action against POLCO [22]: 90 | SETVI (Table B8, pre-emergence herbicidal activity) [23]: 100% | Post-emergence action against ALOMY [24]: 90% | Pre-emergence action against VERPE [25]: 100%
